What all share (type): biochemical
One test deals with HDAC1 (Homo sapiens, UniProt Q13547). Briefly: HDAC enzyme activity assay (fluorogenic substrate), HDAC1.
A further test addresses T1, HDAC2 (Homo sapiens, UniProt Q92769).
T1 construct: NM_001527; Cat. #50002) is full-length with C-terminal his tag; His (C); purchased BPS Biosciences 50002; host or cells: baculovirus infected Sf9 cells
The experiment in a line: HDAC enzyme activity assay (fluorogenic substrate), HDAC2.

The next test addresses T2, PDE5A (Homo sapiens, UniProt O76074).
T2 construct: they are full-length with N-terminal GST tag; GST (N); purchased BPS Biosciences 60050; host or cells: baculovirus infected Sf9 cells
Briefly: PDE enzyme activity assay (HTRF cGMP), PDE5A.

The target of a further test is T3, HDAC6 (Homo sapiens, UniProt Q9UBN7).
T3 construct: BC069243; Cat. #50006) is full-length with N-terminal GST tag; GST (N); purchased BPS Biosciences 50006; host or cells: baculovirus infected Sf9 cells
T3 sequence (Q9UBN7 1-1215): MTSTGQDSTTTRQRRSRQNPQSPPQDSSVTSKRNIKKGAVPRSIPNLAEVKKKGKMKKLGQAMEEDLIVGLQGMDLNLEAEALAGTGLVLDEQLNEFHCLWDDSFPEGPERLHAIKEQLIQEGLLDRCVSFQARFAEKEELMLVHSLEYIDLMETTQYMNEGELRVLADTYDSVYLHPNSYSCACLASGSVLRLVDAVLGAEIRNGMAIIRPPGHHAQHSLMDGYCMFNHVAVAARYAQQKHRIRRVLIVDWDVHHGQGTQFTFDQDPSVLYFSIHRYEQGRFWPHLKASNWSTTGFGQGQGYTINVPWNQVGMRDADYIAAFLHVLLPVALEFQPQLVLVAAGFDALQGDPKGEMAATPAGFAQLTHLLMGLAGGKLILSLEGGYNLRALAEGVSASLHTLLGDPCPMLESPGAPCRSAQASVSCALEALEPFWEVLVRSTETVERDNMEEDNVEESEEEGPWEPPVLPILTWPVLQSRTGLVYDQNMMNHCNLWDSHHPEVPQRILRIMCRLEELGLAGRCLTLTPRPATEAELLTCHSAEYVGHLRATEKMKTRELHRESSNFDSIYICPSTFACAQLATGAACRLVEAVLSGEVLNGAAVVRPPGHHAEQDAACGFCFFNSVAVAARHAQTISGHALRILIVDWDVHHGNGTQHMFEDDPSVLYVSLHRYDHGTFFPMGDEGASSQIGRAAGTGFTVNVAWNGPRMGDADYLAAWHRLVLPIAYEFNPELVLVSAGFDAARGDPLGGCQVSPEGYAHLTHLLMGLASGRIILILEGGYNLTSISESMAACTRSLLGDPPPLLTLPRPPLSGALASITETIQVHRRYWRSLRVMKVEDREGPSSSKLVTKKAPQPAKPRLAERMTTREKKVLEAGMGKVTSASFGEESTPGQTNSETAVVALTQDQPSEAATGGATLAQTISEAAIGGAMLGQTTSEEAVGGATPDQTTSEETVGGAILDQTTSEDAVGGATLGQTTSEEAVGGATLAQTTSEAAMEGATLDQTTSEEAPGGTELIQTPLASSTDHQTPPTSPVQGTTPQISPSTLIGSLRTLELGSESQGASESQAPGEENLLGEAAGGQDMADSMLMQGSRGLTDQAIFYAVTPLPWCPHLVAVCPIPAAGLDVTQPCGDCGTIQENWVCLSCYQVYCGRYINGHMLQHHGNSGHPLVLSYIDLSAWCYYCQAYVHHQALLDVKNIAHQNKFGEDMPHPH
The experiment in a line: HDAC enzyme activity assay (fluorogenic substrate), HDAC6.

Where [1] appears, read: recombinant enzyme, read-out: HDAC1 inhibition (IC50).
Setting [2] is: recombinant enzyme, read-out: HDAC2 inhibition (IC50).
[3] abbreviates: recombinant enzyme, read-out: PDE5A1 inhibition (IC50).
The mark [4] stands for this setting: recombinant enzyme, read-out: HDAC6 inhibition (IC50).
[5] abbreviates: comparative examples, inactive, read-out: HDAC1 IC50.
Setting [6] is: comparative examples, inactive, read-out: HDAC6 IC50.
[7] abbreviates: comparative examples, inactive, read-out: HDAC2 IC50.

Where two headings read alike, the source gives them in different places.

T1 sequence (Q92769 whole entry): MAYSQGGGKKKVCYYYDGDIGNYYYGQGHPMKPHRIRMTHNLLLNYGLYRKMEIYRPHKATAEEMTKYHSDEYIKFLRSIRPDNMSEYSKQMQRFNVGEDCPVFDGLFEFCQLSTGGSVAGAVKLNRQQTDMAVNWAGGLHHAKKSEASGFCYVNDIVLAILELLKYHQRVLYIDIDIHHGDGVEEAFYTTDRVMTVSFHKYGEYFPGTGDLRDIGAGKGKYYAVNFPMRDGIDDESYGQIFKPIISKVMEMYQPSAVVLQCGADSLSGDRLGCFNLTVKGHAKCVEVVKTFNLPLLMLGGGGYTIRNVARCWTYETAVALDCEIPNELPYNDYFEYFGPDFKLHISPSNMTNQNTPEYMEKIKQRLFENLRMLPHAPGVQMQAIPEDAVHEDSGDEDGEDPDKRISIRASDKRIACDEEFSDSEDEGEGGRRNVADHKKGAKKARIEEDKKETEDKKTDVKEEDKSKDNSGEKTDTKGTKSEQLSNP
Sequence of HDAC1 (Q13547 whole entry): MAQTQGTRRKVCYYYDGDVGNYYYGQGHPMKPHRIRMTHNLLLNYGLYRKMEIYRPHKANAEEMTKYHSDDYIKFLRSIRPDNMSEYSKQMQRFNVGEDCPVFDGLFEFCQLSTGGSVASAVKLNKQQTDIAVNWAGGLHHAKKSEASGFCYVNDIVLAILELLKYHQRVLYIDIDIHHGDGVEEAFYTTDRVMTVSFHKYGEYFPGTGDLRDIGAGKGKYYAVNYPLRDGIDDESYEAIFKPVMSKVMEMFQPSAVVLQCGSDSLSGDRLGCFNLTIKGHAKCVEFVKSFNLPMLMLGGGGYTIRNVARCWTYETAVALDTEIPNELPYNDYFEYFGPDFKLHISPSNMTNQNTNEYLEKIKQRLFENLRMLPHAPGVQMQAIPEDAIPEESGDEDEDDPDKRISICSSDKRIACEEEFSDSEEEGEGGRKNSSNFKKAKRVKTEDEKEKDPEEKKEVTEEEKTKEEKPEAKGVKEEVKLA

Take `CCCc1nn(C)c2c(=O)[nH]c(-c3cc(S(=O)(=O)N4CCN(Cc5ccc(/C=C/C(=O)NO)cc5)CC4)ccc3OCC)nc12` [Example 1-02]: the 50% inhibitory concentration (IC50) (as a rule, the concentration at which inhibition is half-maximal) is 10 to 1000 nM at HDAC1 (setting [1]), 1000 to 10000 nM at HDAC2 (setting [2]) and less than 10 nM on PDE5A (setting [3]).
Take `CCCc1nn(C)c2c(=O)[nH]c(-c3cc(CC4CCN(c5ccc(C(=O)NO)cn5)CC4)ccc3OCC)nc12` [Example 1-39]: the IC50 at HDAC1 (setting [1]) lay within 1000 to 10000 nM; on HDAC6 (setting [4]) it was 10 to 1000 nM; on HDAC2 (setting [2]), 1000 to 10000 nM; at PDE5A (setting [3]), 10 to 1000 nM.
For `CCCc1nn(C)c2c(=O)[nH]c(-c3cc(N4CCCC5(CCC(C(=O)NO)CC5)C4)ccc3OCC)nc12` (centres unmarked) [Example 1-65], the IC50 was 1000 to 10000 nM on HDAC1 (setting [1]), greater than 10000 nM at HDAC6 (setting [4]), greater than 10000 nM at HDAC2 (setting [2]) and 10 to 1000 nM at PDE5A (setting [3]).
Consider `CCCc1nn(C)c2c(=O)[nH]c(-c3cc(N4CCC(CCC(=O)NO)CC4)ccc3OCC)nc12` [Example 1-54], for which the IC50 lay within 10 to 1000 nM on HDAC1 (setting [1]), 1000 to 10000 nM on HDAC6 (setting [4]), 1000 to 10000 nM at HDAC2 (setting [2]) and 10 to 1000 nM on PDE5A (setting [3]).
As to `CCCc1nn(C)c2c(=O)[nH]c(-c3cc(N4CCC5(CCN(c6ncc(C(=O)NO)cn6)CC5)C4)ccc3OCC)nc12` [Example 1-69, 2-[2-[4-ethoxy-3-(1-methyl-7-oxo-3-propyl-6H-pyrazolo[4,3-d]pyrimidin-5-yl)phenyl]-2,8-diazaspiro[4.5]decan-8-yl]pyrimidine-5-carbohydroxamic acid], the IC50 at HDAC1 (setting [1]) lay within 10 to 1000 nM; at HDAC6 (setting [4]), 1000 to 10000 nM; on HDAC2 (setting [2]), 1000 to 10000 nM; at PDE5A (setting [3]) it was 10 to 1000 nM.
Regarding `CCCc1nn(C)c2c(=O)[nH]c(-c3cc(C4CC(C(=O)NO)C4)ccc3OCC)nc12` (centres unmarked) [Example 1-85, 3-[4-ethoxy-3-(1-methyl-7-oxo-3-propyl-6H-pyrazolo[4,3-d]pyrimidin-5-yl)phenyl]cyclobutanecarbohydroxamic acid], the 50% inhibitory concentration (IC50) on HDAC1 (setting [1]) fell in the range of 1000 to 10000 nM; on HDAC6 (setting [4]), 10 to 1000 nM; at HDAC2 (setting [2]), 1000 to 10000 nM; on PDE5A (setting [3]), 10 to 1000 nM.
Turning to `CCCc1nn(C)c2c(=O)[nH]c(-c3cc(Cc4ccc(C(=O)NO)cc4F)ccc3OCC)nc12` [Example 1-68], the IC50 on HDAC1 (setting [1]) was 1000 to 10000 nM; on HDAC6 (setting [4]), 10 to 1000 nM; on HDAC2 (setting [2]), greater than 10000 nM; at PDE5A (setting [3]), 10 to 1000 nM.
In the case of `CCCc1nn(C)c2c(=O)[nH]c(-c3cc(CCC(=O)NO)ccc3OCC)nc12` [Example 1-31, 3-[4-ethoxy-3-(1-methyl-7-oxo-3-propyl-6H-pyrazolo[4,3-d]pyrimidin-5-yl)phenyl]propanehydroxamic acid], the IC50 is 1000 to 10000 nM at HDAC1 (setting [1]), 1000 to 10000 nM at HDAC6 (setting [4]), greater than 10000 nM on HDAC2 (setting [2]) and 10 to 1000 nM at PDE5A (setting [3]).
Regarding `CCCc1nc(C)c2c(=O)[nH]c(-c3cc(CC4CC(C(=O)N(C)OC)C4)ccc3OCC)nn12` (centres unmarked) [Comparative Example 2-02, 3-[[4-ethoxy-3-(5-methyl-4-oxo-7-propyl-3H-imidazo[5,1-f][1,2,4]triazin-2-yl)phenyl]methyl]-N-methoxy-N-methylcyclobutanecarboxamide, reference compound], the 50% inhibitory concentration (IC50) is greater than 20000 nM on HDAC1 (setting [5]); greater than 20000 nM at HDAC6 (setting [6]); greater than 20000 nM at HDAC2 (setting [7]); less than 10 nM on PDE5A (comparative example, read-out: PDE5A1 IC50).
For the molecule `CCCc1nn(C)c2c(=O)[nH]c(-c3cc(CC4CCC(C(=O)NO)CC4)ccc3OCC)nc12` (centres unmarked) [Example 1-28, 4-[[4-ethoxy-3-(1-methyl-7-oxo-3-propyl-6H-pyrazolo[4,3-d]pyrimidin-5-yl)phenyl]methyl]cyclohexanecarbohydroxamic acid], the IC50 is 10 to 1000 nM on HDAC1 (setting [1]), 10 to 1000 nM at HDAC6 (setting [4]), greater than 10000 nM at HDAC2 (setting [2]) and 10 to 1000 nM at PDE5A (setting [3]).
Consider `CCCc1nc(C)c2c(=O)[nH]c(-c3cc(Cc4ccc(/C=C/C(=O)NO)cc4)ccc3OCC)nn12` [Example 2-08], for which the IC50 was 1000 to 10000 nM at HDAC1 (setting [1]), 10 to 1000 nM at HDAC6 (setting [4]), 1000 to 10000 nM at HDAC2 (setting [2]) and less than 10 nM at PDE5A (setting [3]).
As for `CCCc1nn(C)c2c(=O)[nH]c(-c3cc(CC4CC(C(=O)NO)C4)ccc3OCC)nc12` (centres unmarked) [Example 1-63, 3-[[4-ethoxy-3-(1-methyl-7-oxo-3-propyl-6H-pyrazolo[4,3-d]pyrimidin-5 yl)phenyl]methyl]cyclobutanecarbohydroxamic acid], the concentration for half-maximal inhibition (IC50) was in the range of 10 to 1000 nM at HDAC1 (setting [1]), 10 to 1000 nM at HDAC6 (setting [4]), 1000 to 10000 nM at HDAC2 (setting [2]) and 10 to 1000 nM on PDE5A (setting [3]).
Regarding `CCCc1nn(C)c2c(=O)[nH]c(-c3cc(Oc4ccc(C(=O)NO)cc4)ccc3OCC)nc12` [Example 1-37, 4-[4-ethoxy-3-(1-methyl-7-oxo-3-propyl-6H-pyrazolo[4,3-d]pyrimidin-5-yl)phenoxy]benzenecarbohydroxamic acid], the 50% inhibitory concentration (IC50) on HDAC1 (setting [1]) lay within 10 to 1000 nM; at HDAC6 (setting [4]) it was 10 to 1000 nM; at HDAC2 (setting [2]), 1000 to 10000 nM; at PDE5A (setting [3]) it was 10 to 1000 nM.
As for `CCCc1nn(C)c2c(=O)[nH]c(-c3cc(OCc4ccc(C(=O)NO)cc4)ccc3OCC)nc12` [Example 1-55], the IC50 on HDAC1 (setting [1]) was 1000 to 10000 nM; on HDAC6 (setting [4]) it was 10 to 1000 nM; on HDAC2 (setting [2]) it was greater than 10000 nM; on PDE5A (setting [3]), 10 to 1000 nM.
On to `CCCc1nn(C)c2c(=O)[nH]c(-c3cc(-c4ccc(CC(=O)NO)cc4)ccc3OCC)nc12` [Example 1-34], for which the IC50 was greater than 10000 nM on HDAC1 (setting [1]), 10 to 1000 nM on HDAC6 (setting [4]), greater than 10000 nM at HDAC2 (setting [2]) and 10 to 1000 nM on PDE5A (setting [3]).
Take `CCCc1nn(C)c2c(=O)[nH]c(-c3cc(S(=O)(=O)N4CCN(CCCC(=O)NO)CC4)ccc3OCC)nc12` [Example 1-05]: the IC50 is 1000 to 10000 nM on HDAC1 (setting [1]), 1000 to 10000 nM on HDAC2 (setting [2]) and less than 10 nM on PDE5A (setting [3]).
Turning to “(1R,2R)-2-(1-(4,4-difluorocyclohexyl)-3a,4,5,7a-tetrahydro-4-oxo-1H-pyrazolo[3,4-d]pyrimidin-6-yl)-N-methoxy-N-methylcyclobutanecarboxamide [Comparative Example 3-01, reference compound]”, the IC50 on HDAC1 (setting [5]), at HDAC6 (setting [6]) and on HDAC2 (setting [7]) was greater than 20000 nM in each case.
As for `CCCc1nc(C)c2c(=O)[nH]c(-c3cc(S(=O)(=O)N(C)CC(=O)N(C)OC)ccc3OCC)nn12` [Comparative Example 2-01, 2-[[4-ethoxy-3-(5-methyl-4-oxo-7-propyl-3H-imidazo[5,1-f][1,2,4]triazin-2-yl)phenyl]sulfonyl-methyl-amino]-N-methoxy-N-methyl-acetamide, reference compound], the IC50 on HDAC1 (setting [5]), at HDAC6 (setting [6]) and on HDAC2 (setting [7]) was greater than 20000 nM each time.
Take `CCCc1nn(C)c2c(=O)[nH]c(-c3cc(S(=O)(=O)N4CCN(CCC(=O)NO)CC4)ccc3OCC)nc12` [Example 1-04, 3-(4-[3-(6,7-Dihydro-1-methyl-7-oxo-3-propyl-1H-pyrazolo[4,3-d]pyrimidin-5-yl)-4-ethoxyphenylsulfonyl]piperazin-1-yl)-N-hydroxypropanamide]: the results for the half-inhibitory concentration (IC50) on HDAC1 (setting [1]), at HDAC2 (setting [2]) and on PDE5A (setting [3]) were 1000 to 10000 nM, greater than 10000 nM and less than 10 nM, respectively.
The like results for `CCCc1nn(C)c2c(=O)[nH]c(-c3cc(S(=O)(=O)N4CCC(CCC(=O)NO)CC4)ccc3OCC)nc12` [Example 1-01] were, in that order, greater than 10000 nM, greater than 10000 nM and 10 to 1000 nM.
For the molecule `CCCc1nn(C)c2c(=O)[nH]c(-c3cc(CC4CCN(CC(=O)NO)CC4)ccc3OCC)nc12` [Example 1-32], the IC50 at HDAC6 (setting [4]) is 1000 to 10000 nM; on HDAC2 (setting [2]), greater than 10000 nM; on PDE5A (setting [3]), less than 10 nM.

These data come from patent US9573956B2, “Compounds as dual inhibitors of phosphodiesterases and histone deacetylases” (FUNDACIÓN PARA LA INVESTIGACIÓN MÉDICA APLICADA, priority 2013, dated 2017).
